From patent US20260042762A1 (Kymera Therapeutics, Inc., priority 2018, published 2026)
Where a name gives a salt, the structure may show the parent alone.

Biological target: T1, MerTK (Homo sapiens, UniProt Q12866)
T1 construct: endogenous in cells; host or cells: Jurkat cells
T1 sequence (Q12866 21-999): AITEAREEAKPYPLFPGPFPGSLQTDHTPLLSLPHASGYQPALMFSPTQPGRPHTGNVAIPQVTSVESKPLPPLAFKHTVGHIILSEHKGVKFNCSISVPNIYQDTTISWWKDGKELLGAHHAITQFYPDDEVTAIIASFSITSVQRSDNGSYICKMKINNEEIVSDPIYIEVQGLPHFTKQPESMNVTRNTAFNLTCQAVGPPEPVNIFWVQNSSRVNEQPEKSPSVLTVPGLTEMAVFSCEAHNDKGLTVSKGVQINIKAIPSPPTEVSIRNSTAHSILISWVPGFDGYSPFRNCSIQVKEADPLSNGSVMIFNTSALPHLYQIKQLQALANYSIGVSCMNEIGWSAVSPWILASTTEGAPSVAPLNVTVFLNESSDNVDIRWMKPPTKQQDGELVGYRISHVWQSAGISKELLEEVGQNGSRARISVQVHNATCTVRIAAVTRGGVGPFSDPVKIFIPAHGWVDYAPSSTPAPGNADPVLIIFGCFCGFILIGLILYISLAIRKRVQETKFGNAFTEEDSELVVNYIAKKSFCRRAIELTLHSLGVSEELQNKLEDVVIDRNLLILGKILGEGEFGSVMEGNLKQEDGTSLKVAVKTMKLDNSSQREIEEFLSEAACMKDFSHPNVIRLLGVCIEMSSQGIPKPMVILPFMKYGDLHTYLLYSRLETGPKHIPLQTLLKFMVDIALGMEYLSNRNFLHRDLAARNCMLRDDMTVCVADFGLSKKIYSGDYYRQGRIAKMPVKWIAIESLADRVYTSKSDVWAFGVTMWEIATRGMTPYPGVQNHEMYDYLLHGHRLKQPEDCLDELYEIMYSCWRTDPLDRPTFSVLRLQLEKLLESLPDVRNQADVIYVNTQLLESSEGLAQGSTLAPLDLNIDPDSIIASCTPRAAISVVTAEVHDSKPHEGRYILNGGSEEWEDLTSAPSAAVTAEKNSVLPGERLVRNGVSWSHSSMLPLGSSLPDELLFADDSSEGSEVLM
Assay: MerTk degradation in Jurkat cells (Western blot)
Format: cell-based
Details: Jurkat, 4 h, 0.001-1 μM, 4 hour-incubation at 37° C., read-out: Jurkat Max % MerTK Degradation
Outline: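 Jurkat cells treated 4 h at 37 °C with compound at 0.001-1 μM final. RIPA lysates quantified by BCA, then MerTK probed by Western blot against actin loading control with IR-dye secondaries and Odyssey imaging.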

Row | Dmax [%] | SMILES
1 | < 20 | Cc1ncsc1-c1ccc(CNC(=O)[C@@H]2C[C@@H](O)CN2C(=O)[C@@H](NCCNCCCCCN2CCN(Cc3ccc(-c4cn([C@H]5CC[C@H](O)CC5)c5nc(NCCC(F)(F)F)ncc45)cc3)CC2)C(C)(C)C)cc1 [I-68, (2S,4R)-1-[(2S)-3,3-dimethyl-2-([2-[(5-[4-[(4-[7-[trans-4-hydroxycyclohexyl]-2-[(3,3,3-trifluoropropyl)amino]-7H-pyrrolo[2,3-d]pyrimidin-5yl]phenyl)methyl]piperazin-1-yl]pentyl)amino]ethyl]amino)butanoyl]-4-hydroxy-N-[[4-(4-methyl-1,3-thiazol-5-yl)phenyl]methyl]pyrrolidine-2-carboxamide dihydrochloride]
2 | > 50 | CCCCNc1ncc2c(-c3ccc(CN4CCN(CCCOCCCc5ccc6c(c5)n(C)c(=O)n6[C@H]5CCC(=O)NC5=O)CC4)cc3)cn([C@H]3CC[C@H](O)CC3)c2n1 [I-69, 3-[5-(3-[3-[4-([4-[2-(butylamino)-7-[trans-4-hydroxycyclohexy1]-7H-pyrrolo[2,3-d]pyrimidin-5-yl]phenyl]methyl)piperazin-1-yl]propoxy]propyl)-3-methyl-2-oxo-2,3-dihydro-1H-1,3-benzodiazol-1-yl]piperidine-2,6-dione; bis(formic acid)]
3 | > 50 | Cn1c(=O)n([C@H]2CCC(=O)NC2=O)c2ccc(CCCOCCCOCCN3CCN(Cc4ccc(-c5cn([C@H]6CC[C@H](O)CC6)c6nc(NCCC7CC7)ncc56)cc4)CC3)cc21 [I-70, 3-(5-[3-[3-(2-[4-[(4-[2-[(2-cyclopropylethyl)amino]-7-[trans-4-hydroxycyclohexyl]-7H-pyrrolo[2,3-d]pyrimidin-5-yl]phenyl)methyl]piperazin-1-yl]ethoxy)propoxy]propy1]-3-methyl-2-oxo-2,3-dihydro-1H-1,3-benzodiazol-1-y1)piperidine-2,6-dione]
4 | > 50 | CCCNc1ncc2c(-c3ccc(CN4CCN(CCOCCCOCCCc5ccc6c(c5)n(C)c(=O)n6[C@H]5CCC(=O)NC5=O)CC4)cc3)cn([C@H]3CC[C@H](O)CC3)c2n1 [I-71, 3-[3-methyl-2-oxo-5-[3-(3-[2-[4-([4-[2-(propylamino)-7-[trans-4-hydroxycyclohexyl]-7H-pyrrolo[2,3-d]pyrimidin-5-yl]phenyl]methyl)piperazin-1-yl]ethoxy]propoxy)propy1]-2,3-dihydro-1H-1,3-benzodiazol-1-yl]piperidine-2,6-dione]
5 | > 50 | Cn1c(=O)n([C@H]2CCC(=O)NC2=O)c2ccc(CCCOCCCOCCN3CCN(Cc4ccc(-c5cn([C@H]6CC[C@H](O)CC6)c6nc(NCC7CC7)ncc56)cc4)CC3)cc21 [I-72, 3-(5-[3-[3-(2-[4-[(4-[2-[(cyclopropylmethyl)amino]-7-[trans-4-hydroxycyclohexy1]-7H-pyrrolo[2,3-d]pyrimidin-5-yl]phenyl)methyl]piperazin-1-yl]ethoxy)propoxy]propy1]-3-methyl-2-oxo-2,3-dihydro-1H-1,3-benzodiazol-1-yl)piperidine-2,6-dione; formic acid]
6 | > 50 | Cn1c(=O)n([C@H]2CCC(=O)NC2=O)c2ccc(CCCOCCCN3CCN(Cc4ccc(-c5cn([C@H]6CC[C@H](O)CC6)c6nc(NCCC(F)(F)F)ncc56)cc4)CC3)cc21 [I-73, 3-[3-methyl-2-oxo-5-[3-(3-[4-[(4-[7-[trans-4-hydroxycyclohexyl]-2-[(3,3,3-trifluoropropyl)amino]-7H-pyrrolo[2,3-d]pyrimidin-5-yl]phenyl)methyl]piperazin-1-yl]propoxy)propyl]-2,3-dihydro-1H-1,3-benzodiazol-1-yl]piperidine-2,6-dione; formic acid]
7 | > 50 | CCCCNc1ncc2c(-c3ccc(CN4CCN(CCCOCCCc5ccc6c(c5)n(C)c(=O)n6[C@H]5CCC(=O)NC5=O)CC4)cc3)cn(C3CCCCC3)c2n1 [I-74, 3-[5-(3-[3-[4-([4-[2-(butylamino)-7-cyclohexyl-7H-pyrrolo[2,3-d]pyrimidin-5-yl]phenyl]methyl)piperazin-1-yl]propoxy]propyl)-3-methyl-2-oxo-2,3-dihydro-1H-1,3-benzodiazol-1-yl]piperidine-2,6-dione]
8 | > 50 | CCCCNc1ncc2c(-c3ccc(C(C)N4CCN(CCCOCCCc5ccc6c(c5)n(C)c(=O)n6C5CCC(=O)NC5=O)CC4)cc3)cn([C@H]3CC[C@H](O)CC3)c2n1 (stereo partly drawn) [I-75, 3-[5-(3-[3-[4-(1-[4-[2-(butylamino)-7-[trans-4-hydroxycyclohexy1]-7H-pyrrolo[2,3-d]pyrimidin-5-yl]phenyl]ethyl)piperazin-1-yl]propoxy]propyl)-3-methyl-2-oxo-2,3-dihydro-1H-1,3-benzodiazol-1-yl]piperidine-2,6-dione; formic acid]
9 | > 50 | CCCCNc1ncc2c(-c3ccc(CN4CCN(CCOCCOCCOCCOCCCc5ccc6c(c5)n(C)c(=O)n6[C@H]5CCC(=O)NC5=O)CC4)nn3)cn([C@H]3CC[C@H](O)CC3)c2n1 [I-76, 3-(5-[1-[4-([6-[2-(butylamino)-7-[trans-4-hydroxycyclohexyl]-7H-pyrrolo[2,3-d]pyrimidin-5-y1]pyridazin-3-y1]methyl)piperazin-1-y1]-3,6,9,12-tetraoxapentadecan-15-y1]-3-methyl-2-oxo-2,3-dihydro-1H-1,3-benzodiazol-1-y1)piperidine-2,6-dione; formic acid]
10 | > 50 | Cn1c(=O)n([C@H]2CCC(=O)NC2=O)c2ccc(CCCOCCCOCCN3CCN(Cc4ccc(-c5cn([C@H]6CC[C@H](O)CC6)c6nc(NCCC(F)(F)F)ncc56)cc4)CC3)cc21 [I-78, 3-(3-methyl-2-oxo-5-[3-[3-(2-[4-[(4-[7-[trans-4-hydroxycyclohexyl]-2-[(3,3,3-trifluoropropyl)amino]-7H-pyrrolo[2,3-d]pyrimidin-5-yl]phenyl)methyl]piperazin-1-yl]ethoxy)propoxy]propy1]-2,3-dihydro-1H-1,3-benzodiazol-1-yl)piperidine-2,6-dione; formic acid]
11 | > 50 | CC(c1ccc(-c2cn([C@H]3CC[C@H](O)CC3)c3nc(NCCC(F)(F)F)ncc23)cc1)N1CCN(CCCOCCCc2ccc3c(c2)n(C)c(=O)n3C2CCC(=O)NC2=O)CC1 (stereo partly drawn) [I-80, 3-[3-methyl-2-oxo-5-[3-(3-[4-[1-(4-[7-[trans-4-hydroxycyclohexyl]-2-[(3,3,3-trifluoropropyl)amino]-7H-pyrrolo[2,3-d]pyrimidin-5-yl]phenyl)ethyl]piperazin-1-yl]propoxy)propyl]-2,3-dihydro-1H-1,3-benzodiazol-1-yl]piperidine-2,6-dione]

Row | SMILES | Dmax [%]
12 | Cn1c(=O)n([C@H]2CCC(=O)NC2=O)c2ccc(CCCOCCCCN3CCN(Cc4ccc(-c5cn([C@H]6CC[C@H](O)CC6)c6nc(NCCC(F)(F)F)ncc56)cc4)CC3)cc21 [I-79, 3-[3-methyl-2-oxo-5-[3-(4-[4-[(4-[7-[trans-4-hydroxycyclohexyl]-2-[(3,3,3-trifluoropropyl)amino]-7H-pyrrolo[2,3-d]pyrimidin-5-yl]phenyl)methyl]piperazin-1-yl]butoxy)propyl]-2,3-dihydro-1H-1,3-benzodiazol-1-yl]piperidine-2,6-dione; formic acid] | > 50
